In PubChem BioAssay AID1963834 (Molecular Pharmacology Branch, DTP, NCI, 2024):

Test system: 873145-292-R-J1-PDC complex spheroid viability
Assay: Anticancer human tumor 873145-292-R-J1-PDC patient-derived renal clear cell carcinoma cell line growth inhibition [POLQ]
Settings: for IC50: curve of first compound; for viability, T/C: stronger effect = lower value
Outline: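 Growth inhibition in 3D: complex spheroids (tumor PDC, HUVEC, MSC) treated with POLQ inhibitor combinations; where Cmax unknown, highest tested concentration 10 microM, except SN-38 at 1 microM.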

[1] = second compound 0.0316 µM, first compound 0.0316 µM
[2] = second compound 0.0316 µM, first compound 0.1 µM
[3] = second compound 0.0316 µM, first compound 0.316 µM
[4] = second compound 0.0316 µM, first compound 1 µM
[5] = second compound 0.0316 µM, first compound 3.16 µM
[6] = second compound 0.0316 µM, first compound 10 µM
[7] = second compound 0.1 µM, first compound 0.0316 µM
[8] = second compound 0.1 µM, first compound 0.1 µM
[9] = second compound 0.1 µM, first compound 0.316 µM
[10] = second compound 0.1 µM, first compound 1 µM
[11] = second compound 0.1 µM, first compound 3.16 µM
[12] = second compound 0.1 µM, first compound 10 µM
[13] = second compound 0.316 µM, first compound 0.0316 µM
[14] = second compound 0.316 µM, first compound 0.1 µM
[15] = second compound 0.316 µM, first compound 0.316 µM
[16] = second compound 0.316 µM, first compound 1 µM
[17] = second compound 0.316 µM, first compound 3.16 µM
[18] = second compound 0.316 µM, first compound 10 µM
[19] = second compound 1 µM, first compound 0.0316 µM
[20] = second compound 1 µM, first compound 0.1 µM
[21] = second compound 1 µM, first compound 0.316 µM
[22] = second compound 1 µM, first compound 1 µM
[23] = second compound 1 µM, first compound 3.16 µM
[24] = second compound 1 µM, first compound 10 µM
[25] = second compound 3.16 µM, first compound 0.0316 µM
[26] = second compound 3.16 µM, first compound 0.1 µM
[27] = second compound 3.16 µM, first compound 0.316 µM
[28] = second compound 3.16 µM, first compound 1 µM
[29] = second compound 3.16 µM, first compound 3.16 µM
[30] = second compound 3.16 µM, first compound 10 µM
[31] = second compound 10 µM, first compound 0.0316 µM
[32] = second compound 10 µM, first compound 0.1 µM
[33] = second compound 10 µM, first compound 0.316 µM
[34] = second compound 10 µM, first compound 1 µM
[35] = second compound 10 µM, first compound 3.16 µM
[36] = second compound 10 µM, first compound 10 µM
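Note: spheroids exposed to compounds for 7 days before viability readout.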
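Throughout, for viability, T/C: luminescence signal used as surrogate for viable cell content; 100% = DMSO vehicle control viability.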

CC(C)n1c(=O)n(C)c2cnc3cc(F)c(-c4ccc(OCCCN5CCCCC5)nc4)cc3c21 + Nc1ccc(C#CCN(C(=O)Cc2ncc(C(F)(F)F)cc2C(F)(F)F)c2ccc(F)cc2)nn1
IC50 (second compound 0.0316 µM): > 10 µM
IC50 (second compound 0.1 µM): > 10 µM
IC50 (second compound 0.316 µM): > 10 µM
IC50 (second compound 1 µM): > 10 µM
IC50 (second compound 3.16 µM): > 10 µM
IC50 (second compound 10 µM): > 10 µM
viability, T/C [1]: 97.1%
viability, T/C [2]: 106%
viability, T/C [3]: 97.8%
viability, T/C [4]: 102%
viability, T/C [5]: 99.6%
viability, T/C [6]: 107%
viability, T/C [7]: 107%
viability, T/C [8]: 112%
viability, T/C [9]: 97.1%
viability, T/C [10]: 108%
viability, T/C [11]: 93.8%
viability, T/C [12]: 80.5%
viability, T/C [13]: 104%
viability, T/C [14]: 115%
viability, T/C [15]: 97%
viability, T/C [16]: 103%
viability, T/C [17]: 104%
viability, T/C [18]: 72.1%
viability, T/C [19]: 109%
viability, T/C [20]: 106%
viability, T/C [21]: 113%
viability, T/C [22]: 96%
viability, T/C [23]: 97%
viability, T/C [24]: 85.8%
viability, T/C [25]: 99.8%
viability, T/C [26]: 111%
viability, T/C [27]: 92.4%
viability, T/C [28]: 102%
viability, T/C [29]: 101%
viability, T/C [30]: 86.1%
viability, T/C [31]: 110%
viability, T/C [32]: 101%
viability, T/C [33]: 108%
viability, T/C [34]: 107%
viability, T/C [35]: 104%
viability, T/C [36]: 86%

CC1COCCN1c1cc(-c2ccnn2C)c2ccnc(-c3ccn[nH]3)c2n1 (centres undefined) + Nc1ccc(C#CCN(C(=O)Cc2ncc(C(F)(F)F)cc2C(F)(F)F)c2ccc(F)cc2)nn1
IC50 (second compound 0.0316 µM): > 10 µM
IC50 (second compound 0.1 µM): > 10 µM
IC50 (second compound 0.316 µM): > 10 µM
IC50 (second compound 1 µM): 6.51 µM
IC50 (second compound 3.16 µM): > 10 µM
IC50 (second compound 10 µM): > 10 µM
viability, T/C [1]: 87.5%
viability, T/C [2]: 89.8%
viability, T/C [3]: 79.2%
viability, T/C [4]: 55.6%
viability, T/C [5]: 56.2%
viability, T/C [6]: 55.3%
viability, T/C [7]: 102%
viability, T/C [8]: 80.7%
viability, T/C [9]: 77.7%
viability, T/C [10]: 53.8%
viability, T/C [11]: 57.6%
viability, T/C [12]: 54.7%
viability, T/C [13]: 95.5%
viability, T/C [14]: 99.1%
viability, T/C [15]: 70.2%
viability, T/C [16]: 60.9%
viability, T/C [17]: 51.7%
viability, T/C [18]: 53.5%
viability, T/C [19]: 96.2%
viability, T/C [20]: 86.9%
viability, T/C [21]: 78.8%
viability, T/C [22]: 58.9%
viability, T/C [23]: 58.5%
viability, T/C [24]: 45.9%
viability, T/C [25]: 88.7%
viability, T/C [26]: 94.1%
viability, T/C [27]: 79.1%
viability, T/C [28]: 59.7%
viability, T/C [29]: 49.3%
viability, T/C [30]: 66.1%
viability, T/C [31]: 102%
viability, T/C [32]: 90.1%
viability, T/C [33]: 80%
viability, T/C [34]: 64.6%
viability, T/C [35]: 55.9%
viability, T/C [36]: 60.1%
